Measured values from US11878981B2, “Substituted 1,2,4-oxadiazoles as TRPA1 inhibitors” (Boehringer Ingelheim International GmbH, priority 2021, dated 2024).

Assays:
[1] = system: human hepatocytes; assay: Assay C: Hepatocyte clearance; format: in vitro ADME; conditions: hepatocyte suspension, 5% species serum, test compound 1 μM, six hours
Procedure: Assay C: Hepatocyte Clearance
The metabolic degradation of the test compound is assayed in a hepatocyte suspension. Hepatocytes (cryopreserved) are incubated in Dulbecco's modified eagle medium (supplemented with 3.5 μg glucagon/500 mL, 2.5 mg insulin/500 mL and 3.75 mg/500 mL hydrocortison) containing 5% species serum.
The cells are incubated for six hours (incubator, orbital shaker) and samples ([…]) are taken at 0, 0.5, 1, 2, 4 and 6 hours. Samples are transferred into acetonitrile and pelleted by centrifugation (5 min). The supernatant is transferred to a new 96-deepwell plate, evaporated under nitrogen and resuspended.
Decline of Parent Compound is Analyzed by HPLC-MS/MS
CLint is calculated as follows CL_[…]=Dose/AUC=(C0/CD)/(AUD+clast/k)×1000/60. C0: initial concentration in the incubation [μM], CD: cell density of vital cells [10e6 cells/mL], AUD: area under the data [μM×h], clast: concentration of last data point [μM], k: slope of the regression line for parent decline [h−1].
The calculated in vitro hepatic intrinsic clearance can be scaled up to the intrinsic in vivo hepatic Clearance and used to predict hepatic in vivo blood clearance (CL) by the use of a liver model (well stirred model). CL_[…]_INVIVO [ml/min/kg]=(CL_[…] [μL/min/10e6cells]×hepatocellularity [10e6 cells/g liver]×liver factor [g/kg bodyweight])/1000 CL [ml/min/kg]=CL_[…]_INVIVO [ml/min/kg]×hepatic blood flow [ml/min/kg]/(CL_[…]_INVIVO [ml/min/kg]+hepatic blood flow [ml/min/kg]) Qh [%]=CL [ml/min/kg]/hepatic blood flow [ml/min/kg])
(§1) Hepatocellularity, human: 120×10e6 cells/g liver
(§2) Liver factor, human: 25.7 g/kg bodyweight
(§3) Blood flow, human: 21 ml/(min×kg)

[2] = Assay B: Microsomal clearance; format: in vitro ADME, human; conditions: pooled liver microsomes, 37° C., 1 mg/ml protein, test compound 1 μM, NADPH
Procedure: Assay B: Microsomal Clearance:
The metabolic degradation of the test compound is assayed at 37° C. with pooled liver microsomes. The final incubation volume of 100 μl per time point contains TRIS buffer pH 7.6 at RT (0.1 M), magnesium chloride (5 mM), microsomal protein (1 mg/ml) and the test compound at a final concentration of 1 μM.
Following a short preincubation period at 37° C., the reactions are initiated by addition of beta-nicotinamide adenine dinucleotide phosphate, reduced form (NADPH, 1 mM) and terminated by transferring an aliquot into solvent after different time points (0, 5, 15, 30, 60 min). Additionally, the NADPH-independent degradation is monitored in incubations without NADPH, terminated at the last time point. The [%] remaining test compound after NADPH independent incubation is reflected by the parameter c (control) (metabolic stability). The quenched incubations are pelleted by centrifugation (10000 g, 5 min).
An aliquot of the supernatant is assayed by LC-MS/MS for the amount of parent compound. The half-life (t½ INVITRO) is determined by the slope of the semilogarithmic plot of the concentration-time profile.
The intrinsic clearance (CL_[…]) is calculated by considering the amount of protein in the incubation: CL _[…] [μl/min/mg protein]=(Ln 2/(half-life [min]*protein content [mg/ml]))*1000 CL_[…]_INVIVO [ml/min/kg]=(CL_[…] [μL/min/mg protein]×MPPGL [mg protein/g liver]×liver factor [g/kg bodyweight])/1000 Qh [%]=CL [ml/min/kg]/hepatic blood flow [ml/min/kg])
as §1, §2, §3

[3] = target: T1, human TRPA1 ion channel (Homo sapiens, UniProt O75762); assay: Assay A: TRPA1 assay (in vitro TRPA1 cell assay, FLIPR calcium); format: cell-based; conditions: read-out: hTRPA1 IC50
T1 construct: host or cells: HEK293
T1 sequence (O75762 whole entry): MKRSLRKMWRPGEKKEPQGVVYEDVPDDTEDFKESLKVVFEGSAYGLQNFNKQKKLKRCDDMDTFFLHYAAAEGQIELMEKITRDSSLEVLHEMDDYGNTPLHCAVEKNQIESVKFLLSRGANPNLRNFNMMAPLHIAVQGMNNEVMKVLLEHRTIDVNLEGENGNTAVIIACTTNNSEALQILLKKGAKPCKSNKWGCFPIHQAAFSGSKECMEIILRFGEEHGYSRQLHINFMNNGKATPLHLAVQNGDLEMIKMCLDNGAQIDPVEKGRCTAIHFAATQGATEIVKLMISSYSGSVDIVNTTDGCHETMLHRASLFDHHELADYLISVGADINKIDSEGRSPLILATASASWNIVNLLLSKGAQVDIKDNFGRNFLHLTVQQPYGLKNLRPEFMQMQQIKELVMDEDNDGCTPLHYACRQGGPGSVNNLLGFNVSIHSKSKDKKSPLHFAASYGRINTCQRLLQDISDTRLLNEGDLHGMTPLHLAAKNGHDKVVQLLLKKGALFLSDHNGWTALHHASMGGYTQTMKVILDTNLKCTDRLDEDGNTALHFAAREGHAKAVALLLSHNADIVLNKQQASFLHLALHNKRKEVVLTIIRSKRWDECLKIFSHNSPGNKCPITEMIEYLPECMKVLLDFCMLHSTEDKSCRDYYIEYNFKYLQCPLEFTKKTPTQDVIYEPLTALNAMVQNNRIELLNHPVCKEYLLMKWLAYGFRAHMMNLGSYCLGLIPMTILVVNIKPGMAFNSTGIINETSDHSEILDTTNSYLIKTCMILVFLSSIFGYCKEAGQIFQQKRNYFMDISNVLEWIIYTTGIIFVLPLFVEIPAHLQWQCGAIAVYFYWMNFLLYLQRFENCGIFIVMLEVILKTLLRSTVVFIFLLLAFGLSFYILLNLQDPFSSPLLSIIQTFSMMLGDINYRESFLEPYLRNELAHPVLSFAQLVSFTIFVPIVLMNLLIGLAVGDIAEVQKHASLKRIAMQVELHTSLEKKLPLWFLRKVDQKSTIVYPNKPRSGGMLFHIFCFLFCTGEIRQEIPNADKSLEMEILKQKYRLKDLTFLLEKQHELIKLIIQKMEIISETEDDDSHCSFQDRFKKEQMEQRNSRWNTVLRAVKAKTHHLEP
Procedure: A human HEK293 cell line over-expressing the human TRPA1 ion channel (Perkin Elmer, Product No. AX-004-PCL) is used as a test system for compound efficacy and potency. Compound activity is determined by measuring the effect of compounds on intracellular calcium concentration induced by AITC (Allylisothiocyanat) agonism in a FLIPRtetra system (Molecular Devices).
The cells are obtained as frozen cells in cryo-vials and stored until use at −150° C.
Cells are grown in culture medium (MEM/EBSS medium with 10% FCS and 0.4 mg/ML Geneticin). […] For sub-culturing cells are detached from flasks by Versene. At the day before the assay, cells are detached, washed twice with medium (MEM/EBSS medium with 10% FCS) and 20000 cells in 20 μl/well are seeded to Poly D-Lysin biocoated 384-well plates (black, clear bottom, Cat. 356697) from Corning. Plates are incubated for 24 hours at 37° C./5% CO2 before use in the assay.
The test compounds are dissolved in 100% DMSO at a concentration of 10 mM and in a first step diluted in DMSO to a concentration of 5 mM, followed by serial dilution steps in 100% DMSO. Dilution factor and number of dilution steps may vary according to needs. Typically 8 different concentrations by 1:5 dilutions are prepared, further intermediate dilutions (1:20) of the substances are carried out with HBSS/HEPES buffer (1×HEPES, Cat. 14065 from Gibco, 20 mM HEPES, Cat. 83264 from SIGMA, 0.1% BSA Cat. 11926 from Invitrogen, pH 7.4
At the assay day cells are washed 3× with assay puffer, 20 μL buffer remaining in the wells after washing. 10 μL Ca6 kit (Cat. R8191 MolecularDevices) loading buffer in HBSS/HEPES is added to the cells and the plates are incubated with lid for 120 minutes at 37°/5% CO2. 10 μL of compound or controls in HBSS/HEPES buffer/5% DMSO from the intermediate dilution plate are carefully added to the wells. […] Finally 10 μL of the agonist AITC 50 μM dissolved in HBSS/HEPES buffer/0.05% DMSO (final concentration 10 μM) is added to the wells followed by an additional read on the FLIPRtetra device for 10 minutes. The area under the signal curve (AUC) after AITC addition is used for IC50/% inhibition calculations
Data Evaluation and Calculation:
Each assay microtiter plate contains wells with vehicle (1% DMSO) controls instead of compound as controls for AITC induced luminescence (100% CTL; high controls) and wells with vehicle controls without AITC as controls for non-specific changes in luminescence (0% CTL; low controls).
The analysis of the data is performed by the calculation of the area under signal curve of the individual wells. Based on this values the % value for the measurement of each substance concentration is calculated (AUC(sample)−AUC(low))*100/(AUC(high)−AUC(low)) using MegaLab software (in house development). The IC50 values are calculated from the % control values using MegaLab software. Calculation: [y=(a−d)/(1+(x/c)^b)+d], a=low value, d=high value; x=conc M; c=IC50 M; b=hill; y=% ctrl

Structure (SMILES) | human Hepatocytes [% Qh] [1] [% Qh] | human LM [% Qh] [2] [% Qh] | IC50 [3] [nM]
Cn1cnc2cnn(Cc3nc(C[C@H](O)c4ccc(Br)cc4)no3)c(=O)c21 [Example 8, 6-({3-[(2S)-2-(4-bromophenyl)-2-hydroxyethyl]-1,2,4-oxadiazol-5-yl}methyl)-1-methyl-1H,6H,7H-imidazo[4,5-d]pyridazin-7-one] | 39 | <23 | 41
Cc1ccc([C@@H](O)Cc2noc(Cn3ncc4ncn(C)c4c3=O)n2)cc1 [Example 6] | 9 | <23 | 96
Cn1cnc2cnn(Cc3nc(C[C@H](O)c4cc5cc(Cl)ccc5o4)no3)c(=O)c21 [Example 11] | 35 | 30 | 19
Cn1cnc2cnn(Cc3nc(C[C@H](O)c4cc5cc(F)ccc5o4)no3)c(=O)c21 [Example 10] | 29 | <23 | 13
Cn1c(=O)n(C)c2c(=O)n(Cc3nc(C[C@H](O)c4cc5ccccc5s4)no3)ncc21 [Example 14] | 43 | <23 | 19
Cn1c(=O)n(C)c2c(=O)n(Cc3nc(C[C@H](O)c4ccc(Cl)cc4)no3)ncc21 [Example 1, 5-({3-[(2S)-2-(4-chlorophenyl)-2-hydroxyethyl]-1,2,4-oxadiazol-5-yl}methyl)-1,3-dimethyl-1H,2H,3H,4H,5H-imidazo[4,5-d]pyridazine-2,4-dione] | 10 | <23 | 22
Cn1cnc2cnn(Cc3nc(C[C@H](O)c4cc5ccc(F)cc5s4)no3)c(=O)c21 [Example 9] | 43 | 41 | 9
Cn1c(=O)n(C)c2c(=O)n(Cc3nc(C[C@H](O)c4cc5cc(F)ccc5o4)no3)ncc21 [Example 16] | 14 | <23 | 79
Cn1c(=O)n(C)c2c(=O)n(Cc3nc(C[C@H](O)c4ccc(F)cc4)no3)ncc21 [Example 3] | 13 | <23 | 147
Cc1ccc([C@@H](O)Cc2noc(Cn3ncc4c(c3=O)n(C)c(=O)n4C)n2)cc1 [Example 2] | 14 | <23 | 47
Cn1cnc2cnn(Cc3nc(C[C@H](O)c4cc5ccccc5s4)no3)c(=O)c21 [Example 12] | 42 | 31 | 24
Cn1cnc2cnn(Cc3nc(C[C@H](O)c4ccc(Cl)cc4)no3)c(=O)c21 [Example 5] | 23 | <23 | 60
Cn1c(=O)n(C)c2c(=O)n(Cc3nc(C[C@H](O)c4cc5ccccc5o4)no3)ncc21 [Example 4] | 9 | <23 | 158
Cn1c(=O)n(C)c2c(=O)n(Cc3nc(C[C@H](O)c4cc5cc(Cl)ccc5o4)no3)ncc21 [Example 15] | 12 | <23 | 47
Cn1cnc2cnn(Cc3nc(C[C@H](O)c4ccc5c(c4)OCO5)no3)c(=O)c21 [Example 7] | 9 | <23 | 204
Cn1c(=O)n(C)c2c(=O)n(Cc3nc(C[C@H](O)c4cc5ccc(F)cc5s4)no3)ncc21 [Example 13] | – | 36 | 9
